Consider two molecules from US20240051939A1, “BENZOPYRAZOLE INHIBITORS OF SARM1” (Disarm Therapeutics, Inc., priority 2020, published 2024).

The target of the assay is SARM1 (Homo sapiens (Human), UniProt Q6SZW1). Nature of the assay: ARM-SAM-TIR SARM1 IC50 assay (NADase activity, NAD+ cleavage). The class given is biochemical. Particulars: ARM-SAM-TIR lysate 5 μg/mL, 2 h pre-incubation, 5 μM NAD+, RapidFire MS readout. As for the experimental part: This Example describes an assay of ARM-SAM-TIR NADase activity and use of this assay to measure the efficacy of compounds of Formula I to block SARM1 mediated NAD+ cleavage. This assay was optimized in such a way as to characterize the efficacy of the compounds in Formula I to inhibit SARM1 activity and to calculate an IC50 value for each compound. This assay makes use of full length SARM1, which encompasses the ARM, SAM and TIR domains.
Chain of SARM1 (Q6SZW1 other isoform, or with tags, fused parts or gaps): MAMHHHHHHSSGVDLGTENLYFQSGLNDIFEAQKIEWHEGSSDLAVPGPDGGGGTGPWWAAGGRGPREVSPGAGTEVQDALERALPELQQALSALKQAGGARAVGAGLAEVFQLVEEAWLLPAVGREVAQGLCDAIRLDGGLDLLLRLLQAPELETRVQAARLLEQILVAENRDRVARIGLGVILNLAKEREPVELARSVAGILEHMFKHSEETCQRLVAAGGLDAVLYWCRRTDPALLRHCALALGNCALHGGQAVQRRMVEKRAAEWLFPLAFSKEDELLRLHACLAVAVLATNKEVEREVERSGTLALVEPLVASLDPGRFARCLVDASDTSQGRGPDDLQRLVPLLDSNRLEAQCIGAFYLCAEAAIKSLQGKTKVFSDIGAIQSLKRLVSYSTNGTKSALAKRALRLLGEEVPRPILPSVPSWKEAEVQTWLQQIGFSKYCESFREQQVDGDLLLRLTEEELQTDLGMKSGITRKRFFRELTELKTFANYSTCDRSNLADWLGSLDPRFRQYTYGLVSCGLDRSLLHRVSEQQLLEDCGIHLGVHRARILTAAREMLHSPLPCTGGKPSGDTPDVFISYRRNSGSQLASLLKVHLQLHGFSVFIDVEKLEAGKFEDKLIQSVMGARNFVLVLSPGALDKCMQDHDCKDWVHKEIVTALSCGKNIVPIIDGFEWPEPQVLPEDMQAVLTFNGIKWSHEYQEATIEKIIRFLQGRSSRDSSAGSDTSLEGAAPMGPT
NRK1-HEK293T cells were seeded onto 150 cm^2 plates at 20×10^6 cells per plate. The next day, the cells were transfected with 15 μg ARM-SAM-TIR expression plasmid, SEQ ID NO: 1.
The cultures were supplemented with 1 mM NR at time of transfection to minimize toxicity from ARM-SAM-TIR overexpression. […] Protein concentration was determined by the Bicinchoninic (BCA) method and used to normalize lysate concentrations.
The enzymatic assay was performed in a 384-well polypropylene plate in Dulbecco's PBS buffer in a final assay volume of 20 μL. […] The NAD+ and ADPR concentrations were analyzed by a RapidFire High Throughput Mass Spectrometry System (Agilent Technologies, Santa Clara, CA) using an API4000 triple quadrupole mass spectrometer (AB Sciex Framingham, MA).

The IC50 is the midpoint of a concentration-inhibition curve. With `Clc1ccc(CCc2n[nH]c3cc(-c4ccncc4)ccc23)cn1` [Compound I-2], the IC50 is 101 to 500 nM.

As for `Clc1ccc(CCc2n[nH]c3cc(-c4ccncc4)ccc23)cc1` [Compound I-1], the half-maximal inhibitory concentration (IC50) lay within 101 to 500 nM.
